Results from US9926347B2, “Methods for engineering sugar transporter preferences” (Board of Regents, The University of Texas System, priority 2013, dated 2018).
Entries after “also recorded” stand apart in the source; their conditions may differ.

Columns and labels:
[1] = biological target: Candida intermedia GXS1 variant Phe38 Ile39 Met40 (F38I39M40; motif G-G-F-I-M-G, SEQ ID NO: 4; parent GXS1 SEQ ID NO: 1) (Sungouiella intermedia, UniProt Q2MEV7, F40M/L39I/V38F); assay type: cell-based; settings: glucose at levels of 5 g/L; S. cerevisiae EX.12
Method: Growth rate measurements—All exponential growth rates were measured and calculated according to the method previously described using a Bioscreen C (Growth Curves USA, Piscataway, N.J.) and a MATLAB script. The Bioscreen C measures online optical density for easy and accurate measurement of the growth curves of up to 200 strains at one time. Error was calculated based on biological triplicate in all cases. In all cases, the Bioscreen C was set to maintain a temperature of 30° C., employ high continuous shaking, and to measure optical density every 10 minutes. A single carbon source per well was used in all experiments save one.

[2] = biological target: T1, Candida intermedia GXS1 variant Phe38 Ile39 Met40 (F38I39M40; V38F/L39I/F40M; motif G-G-F-I-M-G, SEQ ID NO: 4; parent GXS1 SEQ ID NO: 1) (Sungouiella intermedia, UniProt Q2MEV7, F40M/L39I/V38F); experiment: Radiolabeled xylose uptake kinetics, gxs1 Phe38 Ile39 Met40 triple mutant; assay type: cell-based
T1 construct: 14C-xylose uptake
T1 sequence (Q2MEV7 1-522 V38F/L39I/F40M): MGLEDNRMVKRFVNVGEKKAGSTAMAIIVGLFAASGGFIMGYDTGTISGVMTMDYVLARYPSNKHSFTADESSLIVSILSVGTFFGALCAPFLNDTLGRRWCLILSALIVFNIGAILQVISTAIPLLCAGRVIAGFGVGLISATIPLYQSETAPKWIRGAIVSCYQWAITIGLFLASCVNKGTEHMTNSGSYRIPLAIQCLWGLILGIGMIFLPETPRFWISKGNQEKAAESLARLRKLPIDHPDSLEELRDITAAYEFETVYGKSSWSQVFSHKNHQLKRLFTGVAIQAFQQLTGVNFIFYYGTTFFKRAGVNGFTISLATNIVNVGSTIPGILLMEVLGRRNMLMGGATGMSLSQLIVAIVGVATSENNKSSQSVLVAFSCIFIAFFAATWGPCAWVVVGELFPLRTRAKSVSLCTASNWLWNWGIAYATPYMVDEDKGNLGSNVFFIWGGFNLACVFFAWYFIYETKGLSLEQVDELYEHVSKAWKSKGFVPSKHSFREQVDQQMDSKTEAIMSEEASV
Method: (§1) Radiolabelled xylose uptake experiments were performed to quantify the improvement of transport kinetics in the Phe^38 Ile^39 Met^40 triple mutant. […] An increased KM was observed as well (FIG. 5E), a phenotype observed in previous efforts to engineer this transporter (38). Nevertheless, the binding affinity is still quite high for practical culturing at a value corresponding to around 0.1 g/L (Table 2).
(§2) Strains, media, and plasmids—Molecular cloning and standard culturing techniques with E. coli DH10B were performed according to Sambrook (46). S. cerevisiae EX.12 was used for all yeast experiments and was constructed as previously described (38). All transporters were cloned into p414-TEF, a standard yeast shuttle vector created by Mumberg (47). Yeast synthetic complete media was used for culture and experimental growth media. CSM-Trp was used when S. cerevisiae EX.12 was carrying a transporter. Carbon sources were provided at 20 g/L.
(§3) Radiolabeled xylose uptake—Uptake of ^14C labeled xylose was used to determine the Michaelis-Menten parameters for C. intermedia GXS1 and the Phe^38 Ile^39 Met^40 triple mutant. The method was performed as previously described (38).

[3] = biological target: T2, Candida intermedia GXS1 transporter protein, wild type, SEQ ID NO: 1 (Sungouiella intermedia, UniProt Q2MEV7); experiment: Radiolabeled xylose uptake kinetics, wild type GXS1; assay type: cell-based; settings: gene in p414-TEF, S. cerevisiae EX.12
T2 construct: 14C-xylose uptake
T2 sequence (Q2MEV7 1-522): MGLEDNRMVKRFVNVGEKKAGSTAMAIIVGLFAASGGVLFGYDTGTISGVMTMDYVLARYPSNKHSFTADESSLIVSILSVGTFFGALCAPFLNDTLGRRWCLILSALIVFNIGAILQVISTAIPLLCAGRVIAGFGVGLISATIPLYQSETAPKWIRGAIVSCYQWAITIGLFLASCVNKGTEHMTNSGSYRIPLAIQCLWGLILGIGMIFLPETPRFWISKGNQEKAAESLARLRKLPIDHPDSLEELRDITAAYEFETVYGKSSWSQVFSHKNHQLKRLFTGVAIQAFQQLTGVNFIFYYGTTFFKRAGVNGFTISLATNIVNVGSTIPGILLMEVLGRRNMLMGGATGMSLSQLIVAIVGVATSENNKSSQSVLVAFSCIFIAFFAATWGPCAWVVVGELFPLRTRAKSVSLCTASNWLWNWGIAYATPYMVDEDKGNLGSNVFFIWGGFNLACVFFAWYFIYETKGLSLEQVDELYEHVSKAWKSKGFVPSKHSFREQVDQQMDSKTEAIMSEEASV
Method: as §1, §2, §3

[4] = test system: Candida intermedia GXS1 variant Phe38 Ile39 Met40 (F38I39M40; V38F/L39I/F40M; motif G-G-F-I-M-G, SEQ ID NO: 4; parent GXS1 SEQ ID NO: 1); experiment: Radiolabeled xylose uptake kinetics, gxs1 Phe38 Ile39 Met40 triple mutant; assay type: cell-based; settings: triple mutant versus wild type GXS1
Method: as §1, §2, §3

[5] = substrate: OC1OC[C@@H](O)[C@H](O)[C@H]1O; experiment: as above; assay type: cell-based
Method: as §1, §2, §3

[6] = substrate: OC1OC[C@@H](O)[C@H](O)[C@H]1O; experiment: Radiolabeled xylose uptake kinetics, wild type GXS1; assay type: cell-based, Candida intermedia; settings: other: radiolabeled xylose uptake; gene in p414-TEF; S. cerevisiae EX.12
Method: as §1, §2, §3

For `OC[C@H]1OC(O)[C@H](O)[C@@H](O)[C@@H]1O` (stereo partly shown) [glucose], the “inhibition of xylose growth by glucose” value [1] was “still appear to inhibit xylose growth” and the “radiolabelled xylose uptake in the presence of glucose (inhibition by glucose)” value ([2]; glucose concentration not stated) was “no radiolabelled xylose uptake was detected”.

In the case of `OC1OC[C@@H](O)[C@H](O)[C@H]1O` (stereo partly shown) [xylose], the “VMAX (xylose)” value [3] is reported as 7.23 ± 0.6 nmol min^−1 gDCW^−1, the “VMAX (xylose)” value ([2]; radiolabeled xylose uptake, gene in p414-TEF, S. cerevisiae EX.12) is reported as 15.01 ± 2.38 nmol min^−1 gDCW^−1 and the Km ([2]; read-out: binding affinity / KM (xylose), as g/L, conversion of KM) is reported as ~666 µM. For the same molecule, the “KM change compared to wild type (xylose)” value [4] was “increased KM; also recorded: significantly increased” and the “Vmax change compared to wild type (xylose)” value [4] was “doubling in Vmax”.

B1: Candida intermedia GXS1 variant Phe38 Ile39 Met40 (F38I39M40; V38F/L39I/F40M; motif G-G-F-I-M-G, SEQ ID NO: 4; parent GXS1 SEQ ID NO: 1) (Sungouiella … (protein)
chain: MGLEDNRMVKRFVNVGEKKAGSTAMAIIVGLFAASGGFIMGYDTGTISGVMTMDYVLARYPSNKHSFTADESSLIVSILSVGTFFGALCAPFLNDTLGRRWCLILSALIVFNIGAILQVISTAIPLLCAGRVIAGFGVGLISATIPLYQSETAPKWIRGAIVSCYQWAITIGLFLASCVNKGTEHMTNSGSYRIPLAIQCLWGLILGIGMIFLPETPRFWISKGNQEKAAESLARLRKLPIDHPDSLEELRDITAAYEFETVYGKSSWSQVFSHKNHQLKRLFTGVAIQAFQQLTGVNFIFYYGTTFFKRAGVNGFTISLATNIVNVGSTIPGILLMEVLGRRNMLMGGATGMSLSQLIVAIVGVATSENNKSSQSVLVAFSCIFIAFFAATWGPCAWVVVGELFPLRTRAKSVSLCTASNWLWNWGIAYATPYMVDEDKGNLGSNVFFIWGGFNLACVFFAWYFIYETKGLSLEQVDELYEHVSKAWKSKGFVPSKHSFREQVDQQMDSKTEAIMSEEASV
notes: 14C-xylose uptake
In the case of B1, the Km ([5]; other: conversion of KM) is reported as 0.1 g/L and the Km ([5]; other: radiolabeled xylose uptake, gene in p414-TEF, S. cerevisiae EX.12) is reported as 721 ± 116 µM.

B2: Candida intermedia GXS1 transporter protein, wild type, SEQ ID NO: 1 (Sungouiella intermedia) (protein)
chain: MGLEDNRMVKRFVNVGEKKAGSTAMAIIVGLFAASGGVLFGYDTGTISGVMTMDYVLARYPSNKHSFTADESSLIVSILSVGTFFGALCAPFLNDTLGRRWCLILSALIVFNIGAILQVISTAIPLLCAGRVIAGFGVGLISATIPLYQSETAPKWIRGAIVSCYQWAITIGLFLASCVNKGTEHMTNSGSYRIPLAIQCLWGLILGIGMIFLPETPRFWISKGNQEKAAESLARLRKLPIDHPDSLEELRDITAAYEFETVYGKSSWSQVFSHKNHQLKRLFTGVAIQAFQQLTGVNFIFYYGTTFFKRAGVNGFTISLATNIVNVGSTIPGILLMEVLGRRNMLMGGATGMSLSQLIVAIVGVATSENNKSSQSVLVAFSCIFIAFFAATWGPCAWVVVGELFPLRTRAKSVSLCTASNWLWNWGIAYATPYMVDEDKGNLGSNVFFIWGGFNLACVFFAWYFIYETKGLSLEQVDELYEHVSKAWKSKGFVPSKHSFREQVDQQMDSKTEAIMSEEASV
notes: 14C-xylose uptake
In the case of B2, the Km [6] is reported as 25.6 ± 65.9 µM.
